Tests used:
Assay in all cases: Human tumor cell clonigenic assay (tritiated thymidine incorporation)
Format in all cases: cell-based
[1] = system: Cervical squamous cell carcinoma
Method: (§1) Primary and metastatic tumors obtained from the Department of Obstetrics and Gynecology Pathology Section and the Surgical Pathology Division of Los Angeles County/University of Southern California were minced into pieces less than 2 mm in diameter in the presence of RPMI-1640 (Gibco, Grand Island, NTY) containing 15% heat-inactivated fetal calf serum. Each gram of tumor tissue was treated with 10–20 mL of enzyme medium, consisting of Hanks' balanced salt solution with 0.03% DNAse (500 Kunitz units/mL; Sigma Chemical Co., St. Louis, Mo.) and 0.14% collagenase type I (Sigma). Tumor fragments were stirred for 90 minutes at 37° C. in the presence of 5% CO2. After enzymatic digestion, the free cells were decanted through 40-gauge mesh strainers and centrifuged at 200×g for 10 minutes. The supernatant was removed and viable cells were resuspended in RPMI 1640. The cell number was determined using a hematocytometer and 0.04% trypan blue dye. The cells were then centrifuged and the pellet resuspended in RPMI 1640 at 5×10^5 cells/mL.
(§2) Human cancer cells were obtained from operative specimens provided by the Division of Gynecologic Oncology, Department of Obstetrics and Gynecology, or the Department of Surgical Pathology of Los Angeles County/University of Southern California School of Medicine. Tumor cells were maintained in vitro in RPMI 1640 medium supplemented with 15% heat-inactivated fetal calf serum, 100 μg/mL streptomycin, fungizone 25 μg/mL, and 100 μ/mL penicillin.
(§3) Cells were cultured on an underlayer of 0.5% agarose (Bethesda Research Labs, Bethesda, Md.) prepared from a 3% stock of agarose with added penicillin (100 units/mL), streptomycin (100 μg/mL), and fungizone (1.25 μg/mL) (GIBCO) as per a modification of an established procedure. The cloning efficiency of this assay varied depending upon the source of the tissue. One milliliter of this 0.5% agarose mixture was added to each 16×16-mm well of a 24-well plate and the plates were refrigerated for 10 minutes at 4° C. Cells were suspended in 0.6% agarose in RPMI-1640 supplemented with antibiotics and 15% fetal calf serum. One aliquot (0.5 mL) of cell suspension was added to each underlaver at a final concentration of 5×10^4 cells/well, and the plates were refrigerated 10 minutes at 4° C.
(§4) After a 72-hour incubation at 37° C., 5 μCi of tritiated thymidine (specific activity 18.2 Ci/mmol; New England Nuclear, Boston, Mass.) was layered over each well, and the plates were returned to the incubator for an additional 24 hours, incorporation of thymidine was terminated by transferring the agarose layers to 10-mL glass centrifuge tubes (Kimble, Division of Owens, Ill.) and boiling the tubes for 15 minutes in a water bath. The volume was brought to 8 mL, the tubes were centrifuged, and the pellets were washed with phosphate-buffered saline and then dissolved in 3 mL of 0.85 N KOH for 1 hour at 80° C. The tubes were cooled on ice and the hydrolysates were precipitated by adding 30 μL of 1% human serum albumin (Sigma) and 2.4 mL of ice-cold trichloroacetic acid. After overnight storage at 4° C., precipitates were collected by centrifugation. Pellets were washed with 5% trichloroacetic acid, dissolved in 0.3 mL of 0.075 N KOH, and transferred to scintillation vials to which 5 mL of Liquiscint (National Diagnostics, Somerville, N.J.) were added. Radioactivity per vial was measured in a Nuclear-Chicago liquid scintillation counter.

Colon adenocarcinoma = settings: Sample 25, Colon adenocarcinoma
Method: as §1, §2, §3, §4

[2] = system: Metastatic, recurrent moderately to poorly differentiated colonic adenocarcinoma; settings: Sample 34, Metastatic, AII(1–7) 0.1 ng/ml–10 μg/ml
Method: as §1, §2, §3, §4

[3] = system: Ovarian Serous papillary carcinoma; settings: Sample 31, Ovarian Serous papillary carcinoma
Method: as §1, §2, §3, §4

[4] = system: Cystic poorly differentiated endometroid carcinoma of ovary; settings: Sample 30, Cystic poorly differentiated endometroid carcinoma of ovary; AII(1–7) 0.1 ng/ml–10 μg/ml
Method: as §1, §2, §3, §4

Breast adenocarcinoma = settings: for Effect of AII(1–7) on proliferation: AII(1–7) 0.1 ng/ml–10 μg/ml; for IC50 (ng/ml) of AII(1–7): proliferation
Method: as §1, §2, §3, §4

[5] = system: Metastatic uterine carcinosarcoma to the ovary; settings: Sample 5, Metastatic uterine carcinosarcoma to the ovary; AII(1–7) 0.1 ng/ml–10 μg/ml
Method: as §1, §2, §3, §4

[6] = system: Serous tumor of low malignant potential; settings: Sample 6, Serous tumor of low malignant potential; AII(1–7) 0.1 ng/ml–10 μg/ml
Method: as §1, §2, §3, §4

[7] = system: Metastatic Ovarian Papillary Carcinoma to Omentum; settings: Sample 13, Metastatic Ovarian Papillary Carcinoma to Omentum; AII(1–7) 0.1 ng/ml–10 μg/ml
Method: as §1, §2, §3, §4

[8] = Sample 7, Breast adenocarcinoma
[9] = Sample 10, Breast adenocarcinoma
[10] = Sample 20, Breast adenocarcinoma
[11] = Sample 21, Breast adenocarcinoma
[12] = Sample 24, Breast adenocarcinoma
[13] = Sample 28, Breast adenocarcinoma

CC[C@H](C)[C@H](NC(=O)[C@H](Cc1ccc(O)cc1)NC(=O)[C@@H](NC(=O)[C@H](CCCNC(=N)N)NC(=O)[C@@H](N)CC(=O)O)C(C)C)C(=O)N[C@@H](Cc1c[nH]cn1)C(=O)N1CCC[C@H]1C(=O)O [AII(1–7), Asp-Arg-Val-Tyr-Ile-His-Pro] was tested. Which “IC50 (ng/ml) of AII(1–7)” value ([1]; Sample 37, Cervical squamous cell adenocarcinoma, proliferation) did it give?
Its value is 2.73 ng/mL.

And the “Effect of AII(1–7) on proliferation” value ([1]; Sample 37, Cervical squamous cell carcinoma, AII(1–7) 0.1 ng/ml–10 μg/ml)?
The value was “Decreased”.

What about the “Effect of AII(1–7) on proliferation” value (Colon adenocarcinoma; AII(1–7) 0.1 ng/ml–10 μg/ml) of the same compound?
The value was “Decreased”.

What about the “IC50 (ng/ml) of AII(1–7)” value (Colon adenocarcinoma; proliferation) of the same compound?
Its value is 4.75 ng/mL.

And the “Effect of AII(1–7) on proliferation” value [2]?
The value was “No Effect”.

And the “Effect of AII(1–7) on proliferation” value ([3]; AII(1–7) 0.1 ng/ml–10 μg/ml)?
The value was “Decreased”.

What about the “IC50 (ng/ml) of AII(1–7)” value ([3]; proliferation) of the same compound?
Its value is 2.34 ng/mL.

And the “Effect of AII(1–7) on proliferation” value [4]?
Its value is “No Effect”.

And the “Effect of AII(1–7) on proliferation” value (Breast adenocarcinoma; [8])?
The value was “Decreased”.

What about the “IC50 (ng/ml) of AII(1–7)” value (Breast adenocarcinoma; [8]) of the same compound?
Its value is 2.73 ng/mL.

What about the “Effect of AII(1–7) on proliferation” value (Breast adenocarcinoma; [9]) of the same compound?
The value was “No Effect”.

And the “IC50 (ng/ml) of AII(1–7)” value (Breast adenocarcinoma; [9])?
The value was “No Effect”.

And the “Effect of AII(1–7) on proliferation” value (Breast adenocarcinoma; [10])?
Its value is “Decreased”.

What about the “IC50 (ng/ml) of AII(1–7)” value (Breast adenocarcinoma; [10]) of the same compound?
The value was 0.3 ng/mL.

What about the “Effect of AII(1–7) on proliferation” value (Breast adenocarcinoma; [11]) of the same compound?
Its value is “No Effect”.

What about the “IC50 (ng/ml) of AII(1–7)” value (Breast adenocarcinoma; [11]) of the same compound?
The value was “No Effect”.

What about the “Effect of AII(1–7) on proliferation” value (Breast adenocarcinoma; [12]) of the same compound?
The value was “Decreased”.

And the “IC50 (ng/ml) of AII(1–7)” value (Breast adenocarcinoma; [12])?
Its value is 4.25 ng/mL.

And the “Effect of AII(1–7) on proliferation” value (Breast adenocarcinoma; [13])?
Its value is “Decreased”.

What about the “IC50 (ng/ml) of AII(1–7)” value (Breast adenocarcinoma; [13]) of the same compound?
The value was 2.97 ng/mL.

What about the “Effect of AII(1–7) on proliferation” value [5] of the same compound?
The value was “Equivocal”.

What about the “Effect of AII(1–7) on proliferation” value [6] of the same compound?
Its value is “No Effect”.

What about the “Effect of AII(1–7) on proliferation” value [7] of the same compound?
The value was “No Effect”.
